# In ChEMBL document CHEMBL3044741, “Synthesis of novel biologically active methylene derivatives of sydnones” (Med Chem Res, 2013):
# Experiments:
# [1] = Selectivity index, ratio of CC50 for human MT4 cells to IC50 for HIV2 ROD; type: functional
# [2] = Cytotoxicity against human MT4 cells by MTT assay; type: cell-based
# [3] = Selectivity index, ratio of CC50 for human MT4 cells to IC50 for HIV1 3B; type: functional
# [4] = test system: Human immunodeficiency virus 2; assay: Antiviral activity against HIV2 ROD infected in MT4 cells assessed as inhibition of virus-induced cytopathogenicity by MTT assay; type: functional, organism-based; conditions: Human immunodeficiency virus 2, ISOLATE ROD
# Human alphaherpesvirus 3 [5] = assay: Antiviral activity against thymidine kinase-deficient Varicella-zoster virus infected in HEL cells assessed as reduction in plaque formation; type: functional, organism-based; conditions: Human alphaherpesvirus 3, HEL
# [6] = test system: Human immunodeficiency virus 1; assay: Antiviral activity against HIV1 3B infected in MT4 cells assessed as inhibition of virus-induced cytopathogenicity by MTT assay; type: functional, organism-based; conditions: Human immunodeficiency virus 1, 3B
# Human alphaherpesvirus 3 [7] = assay: Antiviral activity against Varicella-zoster virus Oka expressing thymidine kinase infected in HEL cells assessed as reduction in plaque formation; type: functional, organism-based; conditions: Human alphaherpesvirus 3, strain Oka vaccine
# [8] = Cytotoxicity against human HEL cells; type: cell-based
# Cytomegalovirus [9] = assay: Antiviral activity against Cytomegalovirus Davis in HEL cells assessed as reduction in plaque formation; type: functional, organism-based; conditions: Human betaherpesvirus 5, Davis
# [10] = Cytotoxicity against human HEL cells assessed as alteration in cell morphology; type: cell-based
# Cytomegalovirus [11] = assay: Antiviral activity against Cytomegalovirus AD-169 infected in HEL cells assessed as reduction in plaque formation; type: functional, organism-based; conditions: Human betaherpesvirus 5, AD-169, HEL
# Aspergillus niger [12] = assay: Antifungal activity against Aspergillus niger MTCC 282; type: functional
# Aspergillus clavatus [13] = assay: Antifungal activity against Aspergillus clavatus MTCC 1323; type: functional
# Candida albicans [14] = assay: Antifungal activity against Candida albicans MTCC 227; type: functional
# Aspergillus niger [15] = assay: Antifungal activity against Aspergillus niger MTCC 282 at 250 ug/ml after 74 hrs by Kirby-Bauer method; type: functional; conditions: MTCC 282, 74 h, read-out: IZ
# Aspergillus clavatus [16] = assay: Antifungal activity against Aspergillus clavatus MTCC 1323 at 250 ug/ml after 74 hrs by Kirby-Bauer method; type: functional; conditions: MTCC 1323, 74 h, read-out: IZ
# Candida albicans [17] = assay: Antifungal activity against Candida albicans MTCC 227 at 250 ug/ml after 74 hrs by Kirby-Bauer method; type: functional; conditions: MTCC 227, 74 h, read-out: IZ
# Pseudomonas aeruginosa [18] = assay: Antibacterial activity against Pseudomonas aeruginosa MTCC 424 after 24 hrs by broth dilution method; type: functional; conditions: MTCC 424, 24 h
# Streptococcus pyogenes [19] = assay: Antibacterial activity against Streptococcus pyogenes MTCC 442 after 24 hrs by broth dilution method; type: functional; conditions: MTCC 442, 24 h
# Escherichia coli [20] = assay: Antibacterial activity against Escherichia coli MTCC 443 after 24 hrs by broth dilution method; type: functional; conditions: MTCC 443, 24 h
# Staphylococcus aureus [21] = assay: Antibacterial activity against Staphylococcus aureus MTCC 96 after 24 hrs by broth dilution method; type: functional; conditions: MTCC 96, 24 h
# Pseudomonas aeruginosa [22] = assay: Antibacterial activity against Pseudomonas aeruginosa MTCC 424 at 250 ug/ml after 24 hrs by Kirby-Bauer method; type: functional; conditions: MTCC 424, 24 h, read-out: IZ
# Escherichia coli [23] = assay: Antibacterial activity against Escherichia coli MTCC 443 at 250 ug/ml after 24 hrs by Kirby-Bauer method; type: functional; conditions: MTCC 443, 24 h, read-out: IZ
# Streptococcus pyogenes [24] = assay: Antibacterial activity against Streptococcus pyogenes MTCC 442 at 250 ug/ml after 24 hrs by Kirby-Bauer method; type: functional; conditions: MTCC 442, 24 h, read-out: IZ
# Staphylococcus aureus [25] = assay: Antibacterial activity against Staphylococcus aureus MTCC 96 at 250 ug/ml after 24 hrs by Kirby-Bauer method; type: functional; conditions: MTCC 96, 24 h, read-out: IZ
Structure (SMILES),Ratio CC50/IC50 [1],CC50 [2] [µg/mL],Ratio CC50/IC50 [3],IC50 [4] [µg/mL],EC50 (Human alphaherpesvirus 3 [5]) [µg/mL],IC50 [6] [µg/mL],EC50 (Human alphaherpesvirus 3 [7]) [µg/mL],CC50 [8] [µg/mL],EC50 (Cytomegalovirus [9]) [µg/mL],MCC [10] [µg/mL],EC50 (Cytomegalovirus [11]) [µg/mL],MIC (Aspergillus niger [12]) [µg/mL],MIC (Aspergillus clavatus [13]) [µg/mL],MIC (Candida albicans [14]) [µg/mL],zone of inhibition at 250 µg/mL (Aspergillus niger [15]) [mm],zone of inhibition at 250 µg/mL (Aspergillus clavatus [16]) [mm],zone of inhibition at 250 µg/mL (Candida albicans [17]) [mm],MIC (Pseudomonas aeruginosa [18]) [µg/mL],MIC (Streptococcus pyogenes [19]) [µg/mL],MIC (Escherichia coli [20]) [µg/mL],also measured
[O-]c1on[n+](-c2ccc(Cc3ccc(-[n+]4noc([O-])c4CN4CCNCC4)cc3)cc2)c1CN1CCNCC1,<1,14,<1,> 14,> 4,> 14,> 4,20,20,100,11.7,250,1000,1000,23,19,21,100,500,62.5,MIC (Staphylococcus aureus [21]): 200 µg/mL; zone of inhibition at 250 µg/mL (Pseudomonas aeruginosa [22]): 21 mm; zone of inhibition at 250 µg/mL (Escherichia coli [23]): 21 mm; zone of inhibition at 250 µg/mL (Streptococcus pyogenes [24]): 17 mm; zone of inhibition at 250 µg/mL (Staphylococcus aureus [25]): 18 mm
Cc1ccc(-[n+]2noc([O-])c2CN2CCN(c3cccc(Cl)c3Cl)CC2)cc1,<1,31.7,<1,> 31.7,> 4,> 31.7,> 4,28.8,> 4,20,4,500,250,250,21,23,18,1000,200,125,MIC (Staphylococcus aureus [21]): 500 µg/mL; zone of inhibition at 250 µg/mL (Pseudomonas aeruginosa [22]): 16 mm; zone of inhibition at 250 µg/mL (Escherichia coli [23]): 21 mm; zone of inhibition at 250 µg/mL (Streptococcus pyogenes [24]): 19 mm; zone of inhibition at 250 µg/mL (Staphylococcus aureus [25]): 17 mm
[O-]c1on[n+](-c2ccc(Cc3ccc(-[n+]4noc([O-])c4CN4CCN(c5cccc(Cl)c5)CC4)cc3)cc2)c1CN1CCN(c2cccc(Cl)c2)CC1,<1,13.2,<1,> 13.2,> 4,> 13.2,> 4,> 100,20,≥ 20,> 4,1000,1000,1000,20,22,21,500,200,250,MIC (Staphylococcus aureus [21]): 250 µg/mL; zone of inhibition at 250 µg/mL (Pseudomonas aeruginosa [22]): 17 mm; zone of inhibition at 250 µg/mL (Escherichia coli [23]): 18 mm; zone of inhibition at 250 µg/mL (Streptococcus pyogenes [24]): 19 mm; zone of inhibition at 250 µg/mL (Staphylococcus aureus [25]): 19 mm
Cc1ccc(-[n+]2noc([O-])c2CN2CCN(C)C(c3ccccc3)C2)cc1 (stereo not given),<1,14.4,<1,> 14.4,> 20,> 14.4,> 20,23.7,> 20,100,> 20,1000,200,200,18,21,18,100,100,500,MIC (Staphylococcus aureus [21]): 250 µg/mL; zone of inhibition at 250 µg/mL (Pseudomonas aeruginosa [22]): 21 mm; zone of inhibition at 250 µg/mL (Escherichia coli [23]): 16 mm; zone of inhibition at 250 µg/mL (Streptococcus pyogenes [24]): 21 mm; zone of inhibition at 250 µg/mL (Staphylococcus aureus [25]): 19 mm
